Some test systems named below: LOX IMVI melanoma; U251 CNS; KM12 colon; COLO 205 colon; CCRF-CEM leukemia; OVCAR-4 ovarian; SN12C renal; UO-31 renal.
Experiment in all cases: DTP human tumour cell line panel, 48 h

Where “and” joins values, the source holds several entries; their conditions need not be identical. Equal values may be shown once.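 Test compounds were applied to cells in 96-well plates for 48 hours at 5 doses. GI50: concentration for 50% inhibition of growth. TGI: total growth inhibition.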

Broadly, the GI50 is the concentration at which growth is held to half of that of the control. In general, TGI refers to the concentration at which net growth stops.

Consider `C[C@]12CC[C@@H](OC(=O)N(CCCl)N=O)C[C@@H]1CC[C@@H]1[C@@H]2CC[C@]2(C)C(=O)CC[C@@H]12`, for which the GI50 is 5.6 µM in the assay with LOX IMVI melanoma; 0.851 µM in the assay on U251 CNS; 2.81 µM in the assay with KM12 colon; 1.6 µM in the assay on COLO 205 colon; 14.2 µM in the assay on CCRF-CEM leukemia; 14.9 µM in the assay with OVCAR-4 ovarian. The GI50 was 8.01 µM with SN12C renal and 4.22 µM with UO-31 renal. The TGI with LOX IMVI melanoma was 22.1 µM; with U251 CNS, 15.7 µM; in the assay with KM12 colon, 16.3 µM; in the assay with COLO 205 colon, 3.88 µM; with CCRF-CEM leukemia, above 100 µM; in the assay with OVCAR-4 ovarian, 53.4 µM. For the same compound, the TGI in the assay on SN12C renal was 23.3 µM; in the assay on UO-31 renal, 18.1 µM.

For the compound `NNS(=O)(=O)c1cc(C(=O)O)cc(C(=O)O)c1`, the TGI with LOX IMVI melanoma, with U251 CNS, in the assay on KM12 colon, in the assay on COLO 205 colon, with CCRF-CEM leukemia and in the assay on OVCAR-4 ovarian was above 100 µM throughout. Further, the TGI with SN12C renal and in the assay with UO-31 renal was above 100 µM throughout.

As for `O=C(Nc1ccc(Br)cc1)Nc1nn(C(=O)Nc2ccc(Br)cc2)c2ccccc12`, the GI50 was 64.4 µM in the assay with LOX IMVI melanoma; 13.4 µM with U251 CNS; above 88.8 µM with KM12 colon; above 100 µM in the assay with COLO 205 colon; 7.08 µM with CCRF-CEM leukemia; 22.6 µM in the assay on OVCAR-4 ovarian. For the same compound, the values for the GI50 in the assay on SN12C renal and in the assay on UO-31 renal were 43.9 µM and above 100 µM, respectively. In addition, the TGI with LOX IMVI melanoma is above 100 µM; with U251 CNS, 43.6 µM; with KM12 colon, above 100 µM; in the assay with COLO 205 colon it was above 100 µM; in the assay with CCRF-CEM leukemia, above 22.8 µM; in the assay on OVCAR-4 ovarian, above 66.8 µM. In addition, the TGI in the assay with SN12C renal and in the assay with UO-31 renal was above 100 µM in each case.

On to `Cc1cnc(Nc2ccc(OCCN3CCCC3)cc2)nc1Nc1cccc(S(=O)(=O)NC(C)(C)C)c1`, for which the GI50 in the assay with LOX IMVI melanoma was 0.211 µM and 0.938 µM; in the assay with U251 CNS, 0.808 µM and 1.35 µM; in the assay on KM12 colon it was 0.361 µM; in the assay on COLO 205 colon, 0.72 µM; in the assay on CCRF-CEM leukemia it was 0.398 µM and 1.3 µM; in the assay on OVCAR-4 ovarian it was 0.671 µM and 0.967 µM. In addition, the GI50 with SN12C renal was 0.128 µM and 0.98 µM; with UO-31 renal, 0.221 µM and 0.656 µM. Further, the TGI in the assay with LOX IMVI melanoma is 1.61 µM and 2.3 µM; in the assay on U251 CNS it was 17.2 µM and > 10 µM; with KM12 colon, 8.72 µM and > 10 µM; in the assay on COLO 205 colon it was 0.859 µM and 2.55 µM; in the assay with CCRF-CEM leukemia it was above 21.7 µM; in the assay on OVCAR-4 ovarian, 21.3 µM and > 10 µM. In addition, the TGI in the assay on SN12C renal is 9.51 µM and > 9.64 µM; with UO-31 renal it was 1.99 µM and 2.44 µM.

On to `CCCCCCNC(=O)Oc1ccc(/C(=C(/C)Cc2ccc(OC)cc2)c2ccc(OCCN(C)C)cc2)cc1`, for which the GI50 in the assay with LOX IMVI melanoma is 4.39 µM; in the assay with U251 CNS, 3.61 µM; in the assay with KM12 colon it was 4.98 µM; in the assay on COLO 205 colon, 4.71 µM; with CCRF-CEM leukemia, 1.35 µM; in the assay on OVCAR-4 ovarian, 5.02 µM. For the same compound, the results for the GI50 in the assay on SN12C renal and with UO-31 renal were 4.84 µM and 3.87 µM, respectively. Moreover, the TGI in the assay with LOX IMVI melanoma came to 8.8 µM; in the assay with U251 CNS it was 7.9 µM; in the assay with KM12 colon, 10.1 µM; in the assay with COLO 205 colon, 9.79 µM; with CCRF-CEM leukemia, 5.37 µM; in the assay with OVCAR-4 ovarian it was 10.3 µM. For the same compound, the TGI in the assay with SN12C renal worked out at 9.44 µM; with UO-31 renal, 8.03 µM.

Regarding `CC12CC=CCC1CCC1C2CCC2(C)C(c3ccc(=O)oc3)CCC12O` (centres undefined), the GI50 was 0.0562 µM in the assay on LOX IMVI melanoma; 0.127 µM in the assay with U251 CNS; 0.315 µM in the assay with KM12 colon; 0.36 µM in the assay on COLO 205 colon; 0.037 µM in the assay on CCRF-CEM leukemia; 0.197 µM with OVCAR-4 ovarian. Besides, the GI50 with SN12C renal is 0.0378 µM; in the assay with UO-31 renal, 0.0988 µM. In addition, the total growth inhibition concentration (TGI) with LOX IMVI melanoma was 0.213 µM; in the assay with U251 CNS, 0.337 µM; with KM12 colon, 1.55 µM; with COLO 205 colon, 1.45 µM; in the assay on CCRF-CEM leukemia it was 0.303 µM; in the assay with OVCAR-4 ovarian it was 0.641 µM. The concentration for total growth inhibition (TGI) is 0.47 µM with SN12C renal and 0.225 µM in the assay with UO-31 renal.

Regarding `CC(=O)Nc1ccc(/C=C2/NC(=S)N(/C=C3\C(=O)Oc4ccccc4C3=O)C2=O)cc1`, the TGI in the assay with LOX IMVI melanoma, with U251 CNS, in the assay with KM12 colon, in the assay on COLO 205 colon, in the assay on CCRF-CEM leukemia and with OVCAR-4 ovarian was above 100 µM each time. Further, the total growth inhibition concentration (TGI) in the assay on SN12C renal and in the assay on UO-31 renal was above 100 µM throughout.

Regarding `CC(C)(C)n1cc(-c2ccnc(NCCCNS(=O)(=O)c3ccc(Br)cc3)c2)c(-c2cccc(O)c2)n1`, the GI50 is 1.77 µM with LOX IMVI melanoma; 1.65 µM in the assay with U251 CNS; 2.11 µM with KM12 colon; 1.85 µM with COLO 205 colon; 2.26 µM in the assay with CCRF-CEM leukemia; 1.91 µM in the assay with OVCAR-4 ovarian. Also, the GI50 with SN12C renal is 1.61 µM; in the assay with UO-31 renal, 1.66 µM. For the same compound, the TGI in the assay on LOX IMVI melanoma was 3.2 µM; with U251 CNS, 3.66 µM; with KM12 colon, 4.37 µM; in the assay with COLO 205 colon, 3.79 µM; in the assay on CCRF-CEM leukemia it was above 100 µM; in the assay on OVCAR-4 ovarian it was 3.91 µM. Further, the TGI with SN12C renal was determined as 3.01 µM; in the assay on UO-31 renal it was 3.89 µM.

Turning to `CCOC(=O)Cc1csc(N=Nc2c(O)[nH]c3ccccc23)n1`, the TGI with LOX IMVI melanoma was above 100 µM; with U251 CNS, above 100 µM; with KM12 colon, above 100 µM; with COLO 205 colon, above 100 µM; in the assay on CCRF-CEM leukemia, 83.3 µM; in the assay on OVCAR-4 ovarian, above 100 µM. Also, the TGI in the assay on SN12C renal and with UO-31 renal was above 100 µM in each case.

Turning to `COC(=O)[C@]1(C)CCC[C@@]2(C)[C@@H]3C[C@@H]4[C@H]5C[C@@]3(CC[C@@H]21)C[C@@]45C`, the TGI stood at 34.9 µM in the assay with LOX IMVI melanoma; 63.7 µM in the assay on U251 CNS; 45.8 µM in the assay on COLO 205 colon; 45.7 µM in the assay on CCRF-CEM leukemia; 26.7 µM in the assay with OVCAR-4 ovarian; 33.5 µM in the assay with SN12C renal. This compound also yielded a TGI in the assay with UO-31 renal of 29.4 µM.

On to `NC(=S)NNC(=S)NC(=O)c1ccco1`, for which the TGI in the assay on LOX IMVI melanoma, with U251 CNS, in the assay with KM12 colon, in the assay on CCRF-CEM leukemia, in the assay on OVCAR-4 ovarian and in the assay on SN12C renal was above 10 µM each time. Moreover, the TGI with UO-31 renal was above 10 µM.

The values are drawn from PubChem BioAssay (NCI).
